Laboratory results from paper PMC7397249, “Properly Substituted Cyclic Bis-(2-bromobenzylidene) Compounds Behaved as Dual p300/CARM1 Inhibitors and Induced Apoptosis in Cancer Cells” (Molecules, 2020).

Experiments:
Assay type in all cases: cell-based, human
Conditions in all cases: 5 μM, 30 h
p300 = assay: Western blot of acetylation marks (p300 inhibition) in NB4 cells
Experimental: (§1) Western blot analyses were carried out on NB4 and MCF-7 cells treated with a subset of compounds 4 (5 μM, 30 h), to confirm that the observed effects are due to modulation of p300, CARM1, and eventually EZH2 activities. Suberoylanilide hydroxamic acid (SAHA), a FDA-approved HDAC inhibitor [28], and GSK-126 [29], a well-known EZH2 inhibitor, were added as internal controls. In NB4 cells, the levels of acetyl-H3 (acH3) and acetyl-H4 (acH4) as well as those of acetyl-H3K9/14 (AcH3K9/14, see Supplementary material) and of the non-histone substrate acetyl-α-tubulin (Ac-Tubulin) were detected as an index of p300 inhibition (Figure 4). In the same cell line, the levels of H3K27me3, histone mark of the EZH2 catalytic activity (Figure 4), as well as the level of the EZH2 expression (see Supplementary material) have been determined. Last, the amount of H3R17me2, the functional read-out of CARM1 inhibition, was determined (Figure 4).
(§2) The procedures were performed as described in [30, 31]. Primary antibodies used were: Ac-H3 (Millipore, Milan, Italy); Ac-H4 (Millipore, Milan, Italy); Ac-H3K9-14 (Diagenode, Ougrée, Belgium); Ac-α-tubulin (Sigma-Aldrich), H3K27me3 (Diagenode); H3R17me2 (Diagenode); EZH2 (Abcam, Cambridge, UK). […]

EZH2 = assay: Western blot of H3K27me3 (EZH2 catalytic activity) in NB4 cells
Experimental: as §1, §2

CARM1 = assay: Western blot of H3R17me2 (CARM1) in MCF-7 cells
Experimental: In MCF-7 cells, the levels of acetyl-H3, acetyl-H4, H3K27me3, and H3R17me2 were detected by western blot analyses as functional tests for p300 (acH3 and acH4), EZH2 (H3K27me3) and CARM1 (H3R17me2) inhibition in cells, respectively (Figure 5).
The procedures were performed as described in [30, 31]. Primary antibodies used were: Ac-H3 (Millipore, Milan, Italy); Ac-H4 (Millipore, Milan, Italy); Ac-H3K9-14 (Diagenode, Ougrée, Belgium); Ac-α-tubulin (Sigma-Aldrich), H3K27me3 (Diagenode); H3R17me2 (Diagenode); EZH2 (Abcam, Cambridge, UK). H3 (Sigma-Aldrich), H4 (Abcam), GAPDH (Sigma) and ERKs (Santa Cruz, Biotechnology, TX, USA) were used to normalize the total protein extracts (see also Supplementary Material).

| Compound | levels of acetyl-H3 (p300) | levels of H3K27me3 (EZH2) | levels of H3R17me2 (CARM1) |
| --- | --- | --- | --- |
| O=C1/C(=C/c2ccccc2Br)CN(CCc2ccccc2)C/C1=C\c1ccccc1Br [Compound 4f, 3,5-Bis((E)-2-bromobenzylidene)-1-phenethylpiperidin-4-one] | less effective | – | – |
| O=C1/C(=C/c2ccccc2Br)CN(CCCc2ccccc2)C/C1=C\c1ccccc1Br [Compound 4g, 3,5-Bis((E)-2-bromobenzylidene)-1-(3-phenylpropyl)piperidin-4-one] | less effective | – | – |
| O=C1/C(=C/c2ccccc2Br)CN(CC(=O)c2ccccc2)C/C1=C\c1ccccc1Br [Compound 4h, 3,5-Bis((E)-2-bromobenzylidene)-1-(2-oxo-2-phenylethyl)piperidin-4-one] | – | reduction of the H3K27me3 levels | – |
| O=C1/C(=C/c2ccccc2Br)CN(C(=O)CCc2ccccc2)C/C1=C\c1ccccc1Br [Compound 4m, 3,5-Bis((E)-2-bromobenzylidene)-1-(3-phenylpropanoyl)piperidin-4-one] | – | reduction of the H3K27me3 levels | most effective |
